Data reported in the NIST ThermoML archive (doi:10.1021/je8004112).

Experiments:
[1] = Ring tensiometer
[2] = xn = mol fraction of the nth substance listed; conditions: Ring tensiometer

C1CCCCC1 [cyclohexane]
[1]
Conditions	surface tension liquid-gas [mN/m]
293.15 K	25.06
298.15 K	24.45
303.15 K	23.87
308.15 K	23.21
313.15 K	22.71
318.15 K	22.05
323.15 K	21.45

C1CCCCC1 [cyclohexane] + OC1CCCCC1
[2], x1 = 1
Conditions	surface tension liquid-gas [mN/m]
293.15 K	25.06
298.15 K	24.45
303.15 K	23.87
308.15 K	23.21
313.15 K	22.71
318.15 K	22.05
323.15 K	21.45

OC1CCCCC1 [cyclohexanol]
[1]
Conditions	surface tension liquid-gas [mN/m]
293.15 K	33.15
298.15 K	32.74
303.15 K	32.35
308.15 K	31.91
313.15 K	31.58
318.15 K	31.13
323.15 K	30.78

OC1CCCCC1 [cyclohexanol] + C1CCCCC1
surface tension liquid-gas [mN/m], [2]
Conditions	x2 = 0	x2 = 0.005	x2 = 0.009	x2 = 0.013	x2 = 0.023	x2 = 0.031	x2 = 0.044	x2 = 0.07
293.15 K	33.15	31.44	30.93	30.73	30.42	30.26	30.12	29.62
298.15 K	32.74	31	30.54	30.32	29.99	29.8	29.62	29.15
303.15 K	32.35	30.55	30.17	29.88	29.57	29.38	29.16	28.65
308.15 K	31.91	30.12	29.77	29.49	29.15	28.93	28.65	28.18
313.15 K	31.58	29.73	29.4	29.06	28.76	28.48	28.26	27.75
318.15 K	31.13	29.26	29	28.67	28.34	28.07	27.78	27.27
323.15 K	30.78	28.88	28.63	28.3	27.91	27.66	27.35	26.82

OC1CCCCC1 [cyclohexanol] + CCCCCC
surface tension liquid-gas [mN/m], [2]
Conditions	x2 = 0	x2 = 0.007	x2 = 0.009	x2 = 0.012	x2 = 0.021	x2 = 0.03	x2 = 0.042	x2 = 0.075
293.15 K	33.15	31.87	31.64	31.5	31.11	30.5	30	28.85
298.15 K	32.74	31.5	31.31	31.08	30.71	30.07	29.59	28.42
303.15 K	32.35	31.13	30.96	30.7	30.33	29.67	29.15	27.96
308.15 K	31.91	30.77	30.64	30.26	29.96	29.26	28.74	27.5
313.15 K	31.58	30.42	30.31	29.88	29.55	28.85	28.33	27.06

OC1CCCCC1 [cyclohexanol] + CCCCCCC
surface tension liquid-gas [mN/m], [2]
Conditions	x2 = 0	x2 = 0.011	x2 = 0.014	x2 = 0.02	x2 = 0.025	x2 = 0.033	x2 = 0.037	x2 = 0.061
293.15 K	33.15	32.84	32.69	32.56	31.8	31.53	31.38	29.87
298.15 K	32.74	32.47	32.29	32.2	31.48	31.17	31.01	29.54
303.15 K	32.35	32.11	31.92	31.8	31.08	30.82	30.56	29.2
308.15 K	31.91	31.78	31.55	31.39	30.74	30.44	30.14	28.83
313.15 K	31.58	31.43	31.23	31.01	30.41	30.1	29.77	28.54
318.15 K	31.13	31.07	30.85	30.57	30.07	29.76	29.39	28.23
323.15 K	30.78	30.7	30.45	30.16	29.7	29.43	28.99	27.87
